Assay results as given in ChEMBL document CHEMBL3885861, “Open TG-GATES”.

Organism: Rattus norvegicus
Assay: Open TG-GATES - Regimen: Single
Type: toxicity, organism-based, Sprague-Dawley
Design: regimen Single, gender Male, age 6 weeks
Conditions: in vivo, po, 100 mg/kg, route gavage, dose level High; for KIDNEY_L / KIDNEY_R / KIDNEY_TOTAL: tissue Kidney; for ALP / ALT / AST / CRE / DBIL / IP / K / LDH / Na / RALB / TBIL / TC / TG / TP / gamma-GTP: tissue Plasma

Compound: Cc1cnc(NC(=O)C2=C(O)c3ccccc3S(=O)(=O)N2C)s1 [MELOXICAM]
- Bas (3 h, tissue Blood): 1%
- Eos (3 h, tissue Blood): 1.4%
- Fbg (3 h, tissue Blood): 222.4 mg/dL
- Lym (3 h, tissue Blood): 75.6%
- MCH (3 h, tissue Blood): 21.7 pg
- MCHC (3 h, tissue Blood): 34%
- MCV (3 h, tissue Blood): 63.9 fL
- Mono (3 h, tissue Blood): 3.6%
- Neu (3 h, tissue Blood): 18.6%
- PT (3 h, tissue Blood): 11.8 s
- RBC (3 h, tissue Blood): 624.4 x10_4/ul
- Ret (3 h, tissue Blood): 7.1%
- WBC (3 h, tissue Blood): 99 x10_2/uL
- KIDNEY_L (3 h): 1 g
- KIDNEY_R (3 h): 1 g
- KIDNEY_TOTAL (3 h): 2 g
- ALP (3 h): 883 IU/L
- ALT (3 h): 37.2 IU/L
- AST (3 h): 68.2 IU/L
- CRE (3 h): 0.4 mg/dL
- DBIL (3 h): 0.078 mg/dL
- IP (3 h): 8.9 mg/dL
- K (3 h): 4 meq/L
- LDH (3 h): 187.4 IU/L
- Na (3 h): 140.6 meq/L
- RALB (3 h): 3.4 g/dL
- TBIL (3 h): 0.1 mg/dL
- TC (3 h): 74.2 mg/dL
- TG (3 h): 74.4 mg/dL
- TP (3 h): 5.4 g/dL
- gamma-GTP (3 h): 0.8 IU/L
- TERMINAL_BW (6 h): 223.6 g
- Bas (6 h, tissue Blood): 0.4%
- Eos (6 h, tissue Blood): 1%
- Fbg (6 h, tissue Blood): 211.6 mg/dL
- Hb (6 h, tissue Blood): 13.3 g/dL
- Lym (6 h, tissue Blood): 73.4%
- MCH (6 h, tissue Blood): 21.1 pg
- MCHC (6 h, tissue Blood): 34%
- MCV (6 h, tissue Blood): 61.9 fL
- Mono (6 h, tissue Blood): 3.2%
- Neu (6 h, tissue Blood): 22.4%
- PT (6 h, tissue Blood): 12.1 s
- RBC (6 h, tissue Blood): 631.4 x10_4/ul
- Ret (6 h, tissue Blood): 6.7%
- WBC (6 h, tissue Blood): 88.1 x10_2/uL
- KIDNEY_L (6 h): 1 g
- KIDNEY_R (6 h): 1 g
- KIDNEY_TOTAL (6 h): 2 g
- ALP (6 h): 723.4 IU/L
- ALT (6 h): 37.4 IU/L
- AST (6 h): 68 IU/L
- CRE (6 h): 0.3 mg/dL
- DBIL (6 h): 0.068 mg/dL
- IP (6 h): 9.5 mg/dL
- K (6 h): 4.1 meq/L
- LDH (6 h): 160.4 IU/L
- Na (6 h): 140.4 meq/L
- RALB (6 h): 3.3 g/dL
- TBIL (6 h): 0.1 mg/dL
- TC (6 h): 67.6 mg/dL
- TG (6 h): 43 mg/dL
- TP (6 h): 5.3 g/dL
- gamma-GTP (6 h): 1 IU/L
- TERMINAL_BW (9 h): 223.1 g
- APTT (9 h, tissue Blood): 17.8 s
- Bas (9 h, tissue Blood): 0.4%
- Eos (9 h, tissue Blood): 1%
- Fbg (9 h, tissue Blood): 222.6 mg/dL
- Hb (9 h, tissue Blood): 13.3 g/dL
- Ht (9 h, tissue Blood): 38.4%
- Lym (9 h, tissue Blood): 65.6%
- MCH (9 h, tissue Blood): 21.9 pg
- MCHC (9 h, tissue Blood): 34.5%
- MCV (9 h, tissue Blood): 63.6 fL
- Mono (9 h, tissue Blood): 4%
- Neu (9 h, tissue Blood): 28.8%
- RBC (9 h, tissue Blood): 605 x10_4/ul
- Ret (9 h, tissue Blood): 7.1%
- KIDNEY_L (9 h): 1 g
- KIDNEY_R (9 h): 1 g
- KIDNEY_TOTAL (9 h): 2 g
- ALP (9 h): 759 IU/L
- ALT (9 h): 27.4 IU/L
- AST (9 h): 61 IU/L
- CRE (9 h): 0.4 mg/dL
- DBIL (9 h): 0.06 mg/dL
- IP (9 h): 9.6 mg/dL
- K (9 h): 4.3 meq/L
- LDH (9 h): 166 IU/L
- Na (9 h): 141.4 meq/L
- RALB (9 h): 3.2 g/dL
- TBIL (9 h): 0.1 mg/dL
- TC (9 h): 62 mg/dL
- TG (9 h): 23.2 mg/dL
- TP (9 h): 5.3 g/dL
- gamma-GTP (9 h): 1 IU/L
- TERMINAL_BW (24 h): 227.5 g
- Bas (24 h, tissue Blood): 0.2%
- Eos (24 h, tissue Blood): 0.8%
- Fbg (24 h, tissue Blood): 300.8 mg/dL
- Hb (24 h, tissue Blood): 9.5 g/dL
- Ht (24 h, tissue Blood): 28.5%
- Lym (24 h, tissue Blood): 67.4%
- MCH (24 h, tissue Blood): 20.9 pg
- MCHC (24 h, tissue Blood): 33.2%
- MCV (24 h, tissue Blood): 62.8 fL
- Mono (24 h, tissue Blood): 2.8%
- PT (24 h, tissue Blood): 11.8 s
- RBC (24 h, tissue Blood): 453.8 x10_4/ul
- Ret (24 h, tissue Blood): 8.4%
- KIDNEY_L (24 h): 1.1 g
- KIDNEY_R (24 h): 1.1 g
- KIDNEY_TOTAL (24 h): 2.1 g
- ALP (24 h): 504.8 IU/L
- ALT (24 h): 26.2 IU/L
- AST (24 h): 51.8 IU/L
- CRE (24 h): 0.4 mg/dL
- DBIL (24 h): 0.056 mg/dL
- IP (24 h): 9.8 mg/dL
- K (24 h): 4.3 meq/L
- LDH (24 h): 159.4 IU/L
- Na (24 h): 141.2 meq/L
- RALB (24 h): 2.2 g/dL
- TBIL (24 h): 0.1 mg/dL
- TC (24 h): 58.6 mg/dL
- TG (24 h): 69.2 mg/dL
- TP (24 h): 3.9 g/dL
- gamma-GTP (24 h): 1 IU/L
